According to patent US20160361311A1, “LIGANDS THAT TARGET HEPATITIS C VIRUS E2 PROTEIN” (AMERICAN UNIVERSITY OF CAIRO, priority 2014, published 2016):

What was measured:
RD114pp = RD114pp infection of Huh-7 cells (luciferase); assay type: cell-based, feline endogenous virus RD114; details: Feline endogenous virus RD114, Huh-7, 30 h, read-out: IC50 RD114pp
Method: Pseudotyped retroviral particles harboring HCV envelope proteins (HCVpp) from different genotypes were produced as described previously. A plasmid encoding the feline endogenous virus RD114 glycoprotein [35] was used for the production of RD114pp. Both HCVpp and RD114pp expressed Firefly luciferase.
(§1) To identify ligands that inhibit HCV infection, Huh-7 cells were seeded in 96-well plates and treated the day after with six different concentrations of each ligand diluted in DMSO in duplicate using a Zephyr automated liquid handling workstation (Caliper BioSciences, Hopkinton, Mass.). The final concentration of DMSO (1%) was adjusted to be the same for all ligand concentrations. Cells treated with DMSO were used as negative controls. Cells treated with different concentrations of anti-CD81 (JS-81 from BD Pharmingen, San Jose, Calif.) 1 hour before infection, were also used as positive controls. The third day, RD114pp, HCVpp or HCVcc were inoculated and incubated for 30 hours at 37° C. Firefly and Gaussia luciferase assays were performed as indicated by the manufacturer (Promega, San Luis Obispo, Calif.).
Pseudotyped retroviral particles harboring the envelope protein of an endogenous feline retrovirus (RD114pp) were first used to determine the specificity and the safety of molecules.

[1] = molecular target: T1, HCV E2 protein binding to native CD81 on Raji cells (Hepatitis C virus genotype 1b, UniProt Q9WMX2); test: Flow cytometry: recombinant HCV E2 binding to native CD81 on Raji cells; assay type: cell-based, human; details: E2 pre-incubated with 1-400 μM ligand; flow cytometry MFI
T1 construct: encoding amino acids 384-656 of the Con1 envelope protein 2 ectodomain (eE2); Protein A (C); made in house; host or cells: E2: HEK293T cells (inferred); CD81: endogenous on Raji cells
T1 sequence (Q9WMX2 384-656): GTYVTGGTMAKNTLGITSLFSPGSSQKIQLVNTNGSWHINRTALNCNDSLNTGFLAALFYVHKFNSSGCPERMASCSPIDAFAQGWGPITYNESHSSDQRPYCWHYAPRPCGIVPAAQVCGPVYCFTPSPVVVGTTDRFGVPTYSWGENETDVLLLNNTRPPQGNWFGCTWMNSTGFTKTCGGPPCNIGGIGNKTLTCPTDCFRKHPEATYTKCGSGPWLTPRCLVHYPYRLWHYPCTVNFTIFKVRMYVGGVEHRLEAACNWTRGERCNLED
Method: The human B cell line, Raji, which expresses high levels of CD81 on its surface was used to determine if ligands could inhibit the binding of HCV-E2 protein to native CD81. Cells were grown in RPMI medium (10% fetal calf serum, 1% penicillin/streptomycin, 1% L-glutamine, 1% non-essential amino acids, 1% sodium pyruvate, pH 7.4) at 37° C. in an atmosphere of 5% CO2. Purified HCV-E2 protein (4 μg) was pre-incubated with 1,5,15, 50, 100 or 400 μM of the ligand 281816 for 25 min RT. After pre-incubation the E2-ligand complex was added to the cells and incubated for 25 min. The complexes were washed from the cells and 0.5 μg of anti E2 antibody (clone H53) was added followed by secondary anti mouse-FITC (Southern Biotechnology). The cells were washed, fixed with 3% paraformaldehyde, and analyzed by flow cytometry (BD FACSCalibur, software: Cell Quest Pro) analysis. The mean fluorescence intensity (MFI) was calculated using Flowjo software (TreesStar, www.flowjo.com).
Ligand 281816 was selected based on the prediction by docking that it would bind to a site on the HCV E2 protein where CD81 binds. To confirm that the binding of 281816 to E2 inhibits the HCV E2-CD81 interaction, flow cytometry was used to monitor the binding of a recombinant form of the E2 protein to native CD81 overexpressed on Raji cells as a function of 281816 concentration.

HCVcc = HCVcc infection of Huh-7 cells (Gaussia luciferase); assay type: cell-based, HCV; details: Hepatitis C virus, Huh-7, 30 h, read-out: IC50 HCVcc
Method: The cell culture-produced HCV particles (HCVcc) used in this study were based on the JFH1 strain [36] and were prepared as described previously. They were engineered to express the A4 epitope, titer-enhancing mutations and Gaussia luciferase.
as §1
The remaining ligands were next tested against pseudotyped retroviral particles harboring genotype-2a HCV envelope proteins (HCVpp 2a), cell culture produced HCV particles (HCVcc) or RD114pp. As a positive control, an anti-CD81 antibody was used in parallel.

SMILES: CSc1ccc2c(c1)C(N1CCN(C)CC1)Cc1ccccc1S2 (stereo not drawn) [Ligand 281816]
- IC50 (RD114pp): > 10 µM
- inhibition of E2 protein binding to CD81 on Raji cells [1]: inhibited by 281816 in a dose-dependent manner up to 100 μM
- IC50 (HCVcc): 3.95 µM
